Experimental data taken from publication PMC2365101, “Anti-Inflammatory Activity of (Polyphenolic)-Sulfonates and Their Sodium Salts in Rodents” (Metal-Based Drugs, 1998).
pIC50: −log10 of the molar value.

Experiments:
[1] = test system: TNFα release from IC-21 macrophages; experiment: TNFα release from IC-21 macrophages induced by LPS (L929 bioassay); type: cell-based, mouse; conditions: for TNFα release, Percent of LPS Control: 18 hours exposure to LPS, N=6
Text: (§1) Few reports in the literature indicate interaction at these receptor sites other than by peptides or antibodies. […] Blocking these receptors is desirable because the entire inflammation cascade of events is triggered by the early release of TNFa and IL-1. […] Radioisotopes were obtained from New England Nuclear [Dupont, Boston, MA] and substrates and co- factors were obtained from Sigma Chemical Co. [St. Louis, MO]. […] Cell lines were obtained from American Type Culture Collection [Rockville, MD]. In Vivo Tests Anti-inflammatory screen in mice: Male CF male mice weighing 28-32g obtained from Jackson Lab. [Bar Harbor, […]] were used to screen agents at 8 or 16 mg/kg intraperitoneal [I.P.] x 2 administered 3 hr and 30 min prior to administering the irritant, according to Winter's protocol. Evaluation of the induced edema was made by injecting 2% carrageenan in 0.9% saline into the plantar region of the foot. The opposite foot injected with 0.9% isotonic saline was used as a base line. […] Salmonella abortus equi [Lot # 69F4003] […] Drugs from 2 to 16 mg/kg, I.P. were administered 2 hr prior and 2 hr post-injection of the LPS and then subsequently for every 24 hr for the length ofthe animals' lives. Deaths were recorded every 12 hr and continued for 96 hr. […] In vitro TNFa andIL-1 Measurements and Cellular Regulation IC-21 mouse macrophages were maintained in RPMI-1640 + 10% FCS + P/S. After the cells had grown to confluency, E. coli LPS at 10 Ixg/ml was added to the medium. Agents were incubated at 12.5 to 100 µM final concentration for 18 hr. The medium (100 btl) was collected for TNFCt determinations. Interleukin-1 [IL-1] release was determined using P388D1 cells which were maintained in RPMI-1640 + 10% FCS + P/S. The L929 bioassay was used to quantitate the TNF and the IL-1 levels. The L929 mouse fibroblasts were grown in DMEM + 10% FCS + P/S to confluency in 96 well plates and incubated with 100 tl ofmedium from […] or P388D cells after 18 hr. The cells were stained with 0.2% crystal violet in 20% MeOH and read at 580 nm using a Molecular Devices scanner (SOFT-max program). High Affinity Binding to Receptors on L929-106 Cells Two laCi of 125I-TNFct (human recombinant, 30 mCi/tg New England Nuclear) or 125I-IL-1 (70-120[.t Ci/lxg,New England Nuclear) was added to confluency L929 cells for 90 min or 5 hr, respectively with 25, 50 and 100 tM of the test compounds 12]. The cells were washed repeatedly with isotonic saline, pH.7.2 and aliquots counted. Prostaglandin cylcooxygenase activity Mouse J774AI macrophages maintained in Dulbecco's modified Eagle's medium + 15% FCS + P/S. Cells (5 x 106) were incubated with agents (5 to 100 ].tM final concentration) and 3H-arachidonic acid (100 Ci/mol) for 60 min at 37C in a CO2 incubator. The reaction was terminated with 2N HCI, the mixture extracted 2 X with ether, and the organic layer evaporated.

[2] = test system: IL-1 release from P388D1 macrophages; experiment: IL-1 release from P388D1 macrophages (L929 bioassay); type: cell-based, mouse; conditions: for IL-1 release, Percent of Control: over 18 hours, N=6; for reduction of IL-1 release: 25 and 50 μM, 18 hr
Text: as §1

[3] = target: IC-21 macrophage elastase; experiment: Elastase activity in IC-21 macrophages; type: biochemical, mouse; conditions: 120 min
[4] = target: J774-A1 prostaglandin cyclooxygenase; experiment: Prostaglandin cyclooxygenase activity in J774-A1 macrophages; type: cell-based, mouse; conditions: 60 min; read-out: IC50 Cyclo-oxygenase J774-A1
Text: as §1

[5] = target: human leukocyte elastase (RPMI 1788); experiment: Elastase activity in human leukocytes RPMI 1788; type: biochemical

| Compound | TNFα release, Percent of LPS Control ([1]; 5 μM) | TNFα release, Percent of LPS Control ([1]; 12.5 μM) | TNFα release, Percent of LPS Control ([1]; 25 μM) | TNFα release, Percent of LPS Control ([1]; 50 μM) | IL-1 release, Percent of Control ([2]; 12.5 μM) | IL-1 release, Percent of Control ([2]; 25 μM) | IL-1 release, Percent of Control ([2]; 50 μM) | reduction of IL-1 release [2] | pIC50 [3] | pIC50 [4] | reduction of TNFα release ([1]; 50 μM, 18 hr) | pIC50 ([5]; 60 min) | pIC50 ([5]; 120 min) |
| --- | --- | --- | --- | --- | --- | --- | --- | --- | --- | --- | --- | --- | --- |
| CC(=O)Oc1c2cc(S(=O)(=O)[O-])cc1Cc1cc(S(=O)(=O)[O-])cc(c1OC(C)=O)Cc1cc(S(=O)(=O)[O-])cc(c1OC(C)=O)Cc1cc(S(=O)(=O)[O-])cc(c1OC(C)=O)Cc1cc(S(=O)(=O)[O-])cc(c1OC(C)=O)Cc1cc(S(=O)(=O)[O-])cc(c1OC(C)=O)Cc1cc(S(=O)(=O)[O-])cc(c1OC(C)=O)Cc1cc(S(=O)(=O)[O-])cc(c1OC(C)=O)C2.[Na+].[Na+].[Na+].[Na+].[Na+].[Na+].[Na+].[Na+] [Compound 8] | 73 + 4% of LPS Control | 66 + 4% of LPS Control | 44 + 3% of LPS Control | 53 +4% of LPS Control | 66 + 4% of Control | 0% of Control | 0% of Control | > 95% | 3.95 | 4.48 |  |  |  |
| COc1c2cc(S(=O)(=O)[O-])cc1Cc1cc(S(=O)(=O)[O-])cc(c1OC)Cc1cc(S(=O)(=O)[O-])cc(c1OC)Cc1cc(S(=O)(=O)[O-])cc(c1OC)Cc1cc(S(=O)(=O)[O-])cc(c1OC)Cc1cc(S(=O)(=O)[O-])cc(c1OC)C2.[Na+].[Na+].[Na+].[Na+].[Na+].[Na+] [Compound 6] | 118 + 7% of LPS Control | 102 + 5% of LPS Control | 86 + 6% of LPS Control | 62 + 4% of LPS Control | 6 + 2% of Control | 0% of Control | 0% of Control | > 95% |  |  | 38% | 3.56 | 3.79 |
